Measured values: patent publication US6894059B1, “Compounds and methods for treatment of asthma, allergy and inflammatory disorders” (UCB S.A., priority 1999, dated 2005)

Columns and labels:
[1] = target: T1, human cloned H1 receptor (Homo sapiens, UniProt P35367); assay: CHO-K1 H1R binding assay (3H-pyrilamine displacement); conditions: CHO-K1 membranes, 3H-pyrilamine 2 nM, 3 hours at 37° C.; read-out: CHOH1 KI
T1 construct: expressed in transfected cells; host or cells: CHO-K1
Experimental: CHO—K1 cells expressing the human cloned H1 receptor are grown to confluence in tissue culture dishes. Cells are harvested using D-PBS buffer (JRH Biosciences), kept at 4° C., centrifuging to pellet cells (4° C., 500 g, 10 min). The final cell pellet is homogenized and resuspended using Tris/sucrose buffer (20 mM Tris, 250 mM sucrose, pH 74 at 4° C. Aliquots of the membrane preparation are stored at −70° C.
On the day of assay, the membrane preparation is thawed and centrifuged (TLA100.3 rotor, 4° C., 15 min, 23,000 rpm). The pellet is resuspended in Tris/sucrose buffer initially and then diluted further as necessary using assay buffer A (50 mM Na/KPO4, 2 mM MgCl2, 0.5% (w/v) BSA, pH 7.5).
For the binding assay, the membrane preparation, test compound and ^3H-pyrilamine (2 nM final) in buffer A with 1% (v/v) DMSO final are incubated in a 96-well polypropylene plate for 3 hours at 37° C. Non-specific binding is determined in the presence of 10 μM pyrilamine. A 96-well harvester (Packard) is used to harvest the 96-well plate onto a GF/B filter plate pre-treated with 0.1% (v/v) PEI. The plate is counted in a Packard Topcounter after adding Microscint 20 (Packard) scintillation fluid. The Ki for each compound at the histamine H1 receptor is then calculated from these counts.

[2] = target: T2, human 5-lipoxygenase enzyme (Homo sapiens, UniProt P09917); assay: Inhibition of LTB4 production in human whole blood stimulated with calcium ionophore A23187; assay type: cell-based; conditions: A23187 50 μM, LTB4 by EIA, read-out: HWB IC50
T2 construct: Blood is drawn from normal human volunteers into tubes containing heparin; endogenous in cells; host or cells: human whole blood, heparinized, stimulated with A23187
T2 sequence (P09917 1-674): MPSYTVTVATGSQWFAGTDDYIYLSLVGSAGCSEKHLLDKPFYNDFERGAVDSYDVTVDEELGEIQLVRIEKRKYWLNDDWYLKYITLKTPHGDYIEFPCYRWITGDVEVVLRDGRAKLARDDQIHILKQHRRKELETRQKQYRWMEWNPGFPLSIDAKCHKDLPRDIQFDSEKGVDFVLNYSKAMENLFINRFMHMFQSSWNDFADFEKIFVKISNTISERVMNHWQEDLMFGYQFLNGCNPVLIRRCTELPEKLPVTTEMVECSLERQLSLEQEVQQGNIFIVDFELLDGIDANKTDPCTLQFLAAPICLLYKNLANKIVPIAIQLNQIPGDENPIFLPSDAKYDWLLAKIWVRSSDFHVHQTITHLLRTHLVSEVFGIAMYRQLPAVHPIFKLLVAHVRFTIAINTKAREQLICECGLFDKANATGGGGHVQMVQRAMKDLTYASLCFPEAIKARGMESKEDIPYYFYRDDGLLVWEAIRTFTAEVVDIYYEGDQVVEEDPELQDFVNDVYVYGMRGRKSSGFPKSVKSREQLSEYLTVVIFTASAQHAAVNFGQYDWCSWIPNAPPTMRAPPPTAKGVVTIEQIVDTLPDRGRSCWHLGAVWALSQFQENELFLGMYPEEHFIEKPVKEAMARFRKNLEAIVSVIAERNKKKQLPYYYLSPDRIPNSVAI
Experimental: This assay examines the ability of a compound to inhibit leukotriene B4 Production from human blood stimulated with calcium ionophore. As this production of leukotriene B4 is mediated via the activation of the 5-lipoxygenase enzyme, this assay is predictive of a compound's ability to inhibit the human 5-lipoxygenase enzyme.
The procedure for the assay is as follows. Blood is drawn from normal human volunteers into tubes containing heparin. 1 ml of the heparinized blood is pipetted into a 1.5 ml polypropylene tube. To this sample is added either different concentrations of the test compound (5 μl) dissolved in DMSO or 5 μl of DMSO as a vehicle control. These samples are incubated in a water bath, at […] for 15 min. […] From this a percent inhibition of LTB4 production by each concentration of test compound is calculated and the IC50 for inhibition of LTB4 production for each test compound is determined.

T1 sequence (P35367 whole entry): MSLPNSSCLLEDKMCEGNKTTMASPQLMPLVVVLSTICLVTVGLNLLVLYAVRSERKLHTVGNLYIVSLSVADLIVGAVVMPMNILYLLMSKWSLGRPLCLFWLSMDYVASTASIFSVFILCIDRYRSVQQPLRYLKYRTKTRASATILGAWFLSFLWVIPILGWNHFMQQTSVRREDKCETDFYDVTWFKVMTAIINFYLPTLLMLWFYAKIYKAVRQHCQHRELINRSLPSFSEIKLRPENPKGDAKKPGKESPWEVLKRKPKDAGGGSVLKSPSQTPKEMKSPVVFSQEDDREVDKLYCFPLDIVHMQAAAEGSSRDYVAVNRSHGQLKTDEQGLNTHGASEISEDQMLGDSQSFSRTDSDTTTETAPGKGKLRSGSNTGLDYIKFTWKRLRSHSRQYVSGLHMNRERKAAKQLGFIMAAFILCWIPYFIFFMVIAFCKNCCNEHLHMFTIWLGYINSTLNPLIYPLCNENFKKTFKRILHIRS

NC(=O)N(O)CCOCCN1CCN([C@@H](c2ccccc2)c2ccc(Cl)cc2)CC1 [Compound 22, N-[2-(2-{4-[(1R)(4-chlorophenyl)phenylmethyl]piperazinyl}ethoxy)ethyl] amino-N-hydroxyamide]
Ki [1]: 8 nM | IC50 [2]: 1470 nM
